# Legend:
# HEL [1] = assay: Antiviral activity was measured against cytomegalovirus (CMV) Davis strain in human embryonic lung (HEL) cells; assay type: functional, cell-based
# HeLa [2] = assay: (§1) Cytotoxic activity was measured in human […] cells (HeLa); assay type: functional
# HEL [3] = assay: Antiviral activity was measured against Varicella-Zoster virus (VZV) 07/1 strain in human embryonic lung (HEL) cells; assay type: functional, cell-based
# MT4 [4] = assay: The potential anti-HIV activity was evaluated against HIV-1 IIIb strain in MT-4 cells; assay type: functional, cell-based; details: Homo sapiens
# HeLa [5] = assay: as §1; assay type: functional; remark: listed apart in the source
# HEL [6] = assay: Antiviral activity was measured against Varicella-Zoster virus (VZV) YS/R strain in human embryonic lung (HEL) cells; assay type: functional, cell-based
# MT4 [7] = assay: The potential anti-HIV activity was evaluated against HIV-2 ROD strain in MT-4 cells; assay type: functional, cell-based; details: Homo sapiens
# [8] = Cytotoxic activity was measured in human embryonic lung cells(HeLa); assay type: functional
# HEL [9] = assay: Antiviral activity was measured against cytomegalovirus (CMV) AD-169 strain in human embryonic lung (HEL) cells; assay type: functional, cell-based
# [10] = tested on: Human immunodeficiency virus 1; assay: Tested for its ability to inhibit replication of HIV-1 in MT-4 cells, activity expressed as IC50.; assay type: functional; details: Human immunodeficiency virus 1, MT4
IC50 [10] [µg/mL],SMILES,IC50 (HEL [1]) [µg/mL],CC50 (HeLa [2]) [µg/mL],IC50 (HEL [3]) [µg/mL],IC50 (MT4 [4]) [µg/mL],CC50 (HeLa [5]) [µg/mL],IC50 (HEL [6]) [µg/mL],IC50 (MT4 [7]) [µg/mL],CC50 [8] [µg/mL],IC50 (HEL [9]) [µg/mL]
,O=C1c2ccccc2N(COCc2ccccc2)S(=O)(=O)N1Cc1ccccc1,12,> 50,11,> 8,> 50,13,> 8,25,11
,C#CCOCN1c2ccccc2C(=O)N(Cc2ccccc2)S1(=O)=O,11,> 50,> 5,> 8,> 50,> 5,> 8,23,8.4
,Nc1nc2c(ncn2COCCO)c(=O)[nH]1 [ACYCLOVIR],,,,,200,,,,
,Nc1nc2c(ncn2COC(CO)CO)c(=O)[nH]1 [GANCICLOVIR],1.3,> 50,,,,,,,1.2
3.7,O=C1c2ccccc2N(Cc2ccccc2)S(=O)(=O)N1COCc1ccccc1,3.6,> 50,> 5,3.7,> 50,3,> 99,> 125,3.6
,O=C(OCCOCN1c2ccccc2C(=O)N(Cc2ccccc2)S1(=O)=O)c1ccccc1,12,24,> 12,79.3,24,> 12,> 86,> 125,12
